According to PMC5511861, “DS16570511 is a small-molecule inhibitor of the mitochondrial calcium uniporter” (Cell Death Discovery, 2017):

Legend:
[1] = biological target: T1, mitochondrial calcium uniporter (Homo sapiens, UniProt Q8NE86); test: Ca2+ uptake of isolated mitochondria from HEK293A cells (aequorin luminescence); assay type: biochemical; set-up: isolated mitochondria from HEK293A cells were used; endogenous in cells; host or cells: mitochondria isolated from HEK293A cells stably expressing mitochondria-targeted aequorin; conditions: 100 μM Ca2+, 5 min preincubation; read-out: IC50, inhibition of Ca2+ uptake of isolated mitochondria from HEK293A cells
T1 sequence (Q8NE86 51-351): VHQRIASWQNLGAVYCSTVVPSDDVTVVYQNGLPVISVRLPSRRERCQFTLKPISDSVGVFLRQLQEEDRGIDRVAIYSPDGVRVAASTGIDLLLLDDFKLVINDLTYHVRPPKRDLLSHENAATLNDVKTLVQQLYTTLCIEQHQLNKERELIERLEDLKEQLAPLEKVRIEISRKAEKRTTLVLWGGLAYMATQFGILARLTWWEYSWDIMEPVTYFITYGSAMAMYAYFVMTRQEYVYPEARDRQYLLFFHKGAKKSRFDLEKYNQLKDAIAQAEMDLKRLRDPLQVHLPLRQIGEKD
T1 sequence (Q9H4I9 48-107 partner limits assumed): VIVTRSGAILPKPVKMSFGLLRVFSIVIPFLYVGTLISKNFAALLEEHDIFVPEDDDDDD
Experimental: Mitochondrial Ca^2+ uptake activity is regulated by cytosolic protein kinase signaling,[19] raising the possibility that HTS hits contained indirect inhibitors of the uniporter, such as inhibitors of cytosolic signaling. To examine the direct inhibitory effect of the compounds on the mitochondrial Ca^2+ uptake, isolated mitochondria from HEK293A cells were used. Ca^2+ uptake of the isolated mitochondria was observed as a rapid increase in the luminescence level after application of 100 μM Ca^2+ (Figure 2a).
Figure 2 DS16570511 inhibits Ca^2+ uptake in isolated mitochondria from HEK293A cells. (a) Representative raw data of Ca^2+ uptake in isolated mitochondria. (b) Effect of DS16570511 or Ru360 on mitochondrial Ca^2+ uptake. The area under the curve of temporal aequorin activities is used for calculation of inhibitory activities. Inhibition 0 or 100% is defined as a value of […], respectively. Data are mean with S.E.M. from three independent samples.
To monitor Ca^2+ uptake activity of isolated mitochondria, mitochondria were prepared from the cells (1×10^8 cells) stably expressing mitochondria-targeted aequorin by using a mitochondria isolation kit. […] The luminescence levels were detected as described above.

rat perfused heart = test: Cardiac functions (heart rate, contractility) in rat isolated perfused heart
Experimental: We then investigated the effect of DS16570511 on cardiac functions in the perfused heart. We observed that heart rate was unaffected by DS16570511 in the range of 3–30 μM (Figure 7a). […] The increase of contractility was diminished by washout of the drug (Figure 7b), showing that the cardiac effect of DS16570511 is reversible.
Figure 7 Effects of DS16570511 on cardiac functions. (a) Effect of DS16570511 on heart rate in rat perfused heart. Data are mean with S.E.M. from more than four independent samples. (b) Representative data showing acute and reversible effect of DS16570511 on contractility. (c) Effect of DS16570511 on contractility in rat perfused heart. Plotted are values of pretreatment and 5 min after treatment of 10 or 30 μM DS16570511.
The hearts were rapidly excised from 9-week-old male Wistar rats and perfused at 37 °C with Krebs-Ringer perfusion buffer (127.2 mM NaCl, 4.7 mM KCl, 2.5 mM CaCl2, 1.2 mM KH2PO4, 1.2 mM MgSO4, 25 mM NaHCO3 and 5.5 mM glucose (pH 7.4)) equilibrated with 95% O2/5% CO2. A balloon was inserted through the left atrium into the left ventricle. Heart rate and contractility were continuously recorded with a data acquisition system (PowerLab, ADInstruments, Bella Vista, NSW, Australia).

[2] = biological target: T1, mitochondrial calcium uniporter; test: Aequorin assay: serum-induced mitochondrial Ca2+ influx in HEK293A cells expressing mitochondria-targeted aequorin; assay type: cell-based; set-up: endogenous in cells; host or cells: HEK293A cells stably expressing mitochondria-targeted aequorin; conditions: 10% fetal bovine serum, 20 min pretreatment, read-out: IC50, inhibition of serum-induced mitochondrial Ca2+ influx
Experimental: In the first screening using the cell-based assay, application of 10% fetal bovine serum to the cells triggered a rapid increase of mitochondrial Ca^2+ level (Figure 1a). Pretreatment of the cells with DS16570511 inhibited the serum-induced mitochondrial Ca^2+ influx with an IC50 of 7 μM (Figures 1a and b). In order to eliminate broad channel inhibitors or chemicals affecting the aequorin-based detection system, a counter assay was carried out using HEK293A cells expressing aequorin in cytosol. In the assay, the concentration of DS16570511 used to decrease the serum-induced cytosolic Ca^2+ increase by 50% was ~50 μM.
Figure 1 DS16570511 inhibits mitochondrial Ca^2+ influx in HEK293A cells. (a) Representative raw data of serum-induced mitochondrial Ca^2+ influx in HEK293A cells. (b) Effect of DS16570511 on serum-induced mitochondrial Ca^2+ influx. The area under the curve of temporal aequorin activities is used for calculation of inhibitory activities. […]
For dynamic measurements of mitochondrial Ca^2+ levels in intact cells, HEK293A cells were stably transfected with pIRES-puro vector expressing mitochondria-targeted aequorin.[20] […] For induction of intracellular Ca^2+, the cells were treated with 10% fetal bovine serum, and luminescence levels were measured by using a Centro LB960 luminometer (Berthold Technologies, Oak Ridge, TN, USA).

## Cc1onc(-c2c(Cl)cccc2Cl)c1CNc1cccc(C(=O)c2cn(CCCC(=O)O)c3ccccc23)c1 [DS16570511]
[1]
  IC50: 0.86 µM
Rat perfused heart; 3–30 μM
  effect on heart rate: unaffected
Rat perfused heart; 10 or 30 μM, 5 min after treatment
  effect on cardiac contractility: increased cardiac contractility
Rat perfused heart; washout of the drug
  reversibility of the cardiac effect on washout: reversible
[2]
  IC50: 7 µM
